Experimental data taken from PubChem BioAssay (NCI).
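Tested at 5 concentrations; 48 h exposure; 96-well plates; endpoints linearly interpolated, else capped at highest concentration. TGI is the concentration that stops growth completely.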

Key:
Experiment in all cases: DTP human tumour cell line panel, 48 h
TK-10 renal = tested on: TK-10 renal
NCI-H522 lung = tested on: NCI-H522 lung
UACC-257 melanoma = tested on: UACC-257 melanoma
HT29 colon = tested on: HT29 colon
HS 578T breast = tested on: HS 578T breast
A498 renal = tested on: A498 renal
DU-145 prostate = tested on: DU-145 prostate
HCC-2998 colon = tested on: HCC-2998 colon
786-0 renal = tested on: 786-0 renal
OVCAR-4 ovarian = tested on: OVCAR-4 ovarian
NCI-H23 lung = tested on: NCI-H23 lung
RXF 393 renal = tested on: RXF 393 renal
T-47D breast = tested on: T-47D breast
PC-3 prostate = tested on: PC-3 prostate
UO-31 renal = tested on: UO-31 renal
HOP-92 NSCLC = tested on: HOP-92 NSCLC
SF-539 CNS = tested on: SF-539 CNS
NCI/ADR-RES ovarian = tested on: NCI/ADR-RES ovarian
MALME-3M melanoma = tested on: MALME-3M melanoma

SMILES	TGI (TK-10 renal) [µM]	TGI (NCI-H522 lung) [µM]	TGI (UACC-257 melanoma) [µM]	TGI (HT29 colon) [µM]	TGI (HS 578T breast) [µM]	TGI (A498 renal) [µM]	TGI (DU-145 prostate) [µM]	TGI (HCC-2998 colon) [µM]	TGI (786-0 renal) [µM]	TGI (OVCAR-4 ovarian) [µM]	TGI (NCI-H23 lung) [µM]	TGI (RXF 393 renal) [µM]	TGI (T-47D breast) [µM]	TGI (PC-3 prostate) [µM]	TGI (UO-31 renal) [µM]	TGI (HOP-92 NSCLC) [µM]	TGI (SF-539 CNS) [µM]	TGI (NCI/ADR-RES ovarian) [µM]	TGI (MALME-3M melanoma) [µM]
CC(Nc1cc(=O)n(C)c(=O)[nH]1)c1ccccc1 (configuration not stated)	> 100	> 100	> 100	> 100	> 100	> 100	> 100	> 100	> 100	> 100	> 100	> 100	> 100	> 100	> 100	> 100	> 100	> 100	
Cc1ccc(N2C(=O)C(O)=C(C(=O)C(C)(C)C)C2c2ccc([N+](=O)[O-])cc2)cc1 (configuration not stated)	90.8		34.8	37.3	45.3	68.9	> 100	45.4	39.9	22.3	35.2		52.5	> 100	89.3	59.5	63	53.8	46
COC(=O)C(Cc1ccccc1)NC(=O)C(CCCN=C(N)N)NC(=O)OCc1ccccc1 (configuration not stated)	> 100	> 100		> 100	> 100		> 100	> 100	> 100	> 100	> 100	> 100	> 100	> 100	> 100	> 100		> 100	> 100
COc1cc(C2c3cc4c(cc3OC(N3CCOCC3)C2C)OCO4)cc(OC)c1OC (configuration not stated)	63.9	9.61	> 59.7	7.51	0.722		> 49.6	4.35	28.6	> 100	18.2	1.22	> 100	> 100	55.2	60.2	1.69	2.01	> 100
O=C1O[C@H](COC(=O)c2ccccc2)[C@@H](OC(=O)c2ccccc2)C=C1OC(=O)c1ccccc1	75.7	37.8	69.3		> 100	> 100	> 100	> 100	33.7	48.7	42.6	31.4	54.6	62.7	> 100	42.8	32.5	38.8	
CCC(C)N1CN(c2ccccc2)C2(CCN(CCCC(=O)c3ccc(F)cc3)CC2)C1=O (configuration not stated)	16.5	20.6		2.35	36.4	16.8	13.4		> 100	16.2	14.1	30	15.9	23.1	15.6		21	> 100	27.8
CCC(c1nc2ccccc2c(=O)n1NC(=O)C(C)(C)C)C1(O)CCCCC1 (configuration not stated)		> 100	> 100	> 100	> 100	> 100	> 100		> 100	> 100	> 100	> 100	> 100	> 100	> 100	> 100	> 100	> 100	> 100
COc1ccc2c(c1)-c1c(c3ccccc3n1CCN1CCOCC1)CC2	1.78	37.3	> 100	25.9	32.3		> 100	34.3	54.1	> 100	65.6		> 100	45.3	96.8	> 100	52.4	46	46.2
CCOc1ccc(C(c2c(O)c3ccccc3oc2=O)c2c(O)c3ccccc3oc2=O)cc1	> 100	> 100	> 100	> 100	> 100	> 100	> 100		> 100	> 100	> 100		> 100	84.3	> 100	65.1	> 100	> 100	> 100
OC1NC2CC3NC(O)C(O)NC3CC2NC1O (configuration not stated)	> 100	> 100	> 100	> 100	> 100		> 100	> 100	> 100	> 100	> 100	> 100	> 100	> 100	> 100	> 100	> 100	> 100	> 100
N#CCCCCC12C3C(=O)N(c4ccccc4)C(=O)C3ON1O[C@@H]1C(=O)N(c3ccccc3)C(=O)[C@@H]12 (some centres not stated)	> 100	> 100	> 100	> 100	> 100	> 100	> 100	> 100	> 100	> 100	> 100		> 100	> 100	> 100	> 100	> 100	> 100	> 100
CC1(C)N=C(/C(C#N)=[N+](/[O-])C(=O)c2ccccc2)C(C)(C)N1O	> 100		> 100	> 100	> 100		> 100	> 100	> 100	> 100	> 100	> 100	> 100	> 100	> 100	> 100	> 100	> 100	> 100
S=C1NC2=C(COC/C2=C\c2ccccc2Cl)C(c2ccccc2Cl)N1 (configuration not stated)	> 100	> 100	> 100		> 100	> 100	> 100	89	> 100	> 100	> 100	> 100	> 100	> 100	> 100	> 100	> 100	> 100	
CCC(=O)n1c(=O)n(-c2ccc([N+](=O)[O-])cc2)c(=O)n1C(=O)CC	> 100	> 100	> 100	> 100	> 100		> 100	> 100	> 100	> 100	> 100	> 100	> 100	> 100	> 100			> 100	
CCOc1ccc(-n2c(=O)n3c(Nc4ccc(Cl)cc4)nc4c(c(=O)n(C)c(=O)n4C)n3c2=O)cc1	66	32.8	60.4	> 100	> 100	39.4	> 100	34.4	> 100	> 100	64.2	43.2	> 100	> 100	> 100	48.2	> 100	> 100	
CCCCCCCCC[C@@H]1C[C@@H]2CCC3C(C(=O)OCCCCNC(=O)OCc4ccccc4)=C(C)NC(=N1)N32 (some centres not stated)	17.7	6.01	12.2	12.9	5.48	18.9	21	11.1	3.2	21.3	6.78	7.34	10.6	7.32	13.7	7.08	14.4	7	
O=c1[nH]c2cc([N+](=O)[O-])c(N(CCO)CCO)c([N+](=O)[O-])c2[nH]1		> 100	59.3	> 100	> 100	66	> 100		> 100	> 100	> 100	49.4	80.5	> 100	> 100	> 100	77.1	> 100	> 100
CC(=O)O[C@@H]1CC2[C@@H](CCC3Cc4nc5c(nc4C[C@@]32C)CC2CC[C@@H]3C(CC[C@@]4(C)C3CC[C@@H]4C(C)CCCC(C)C)[C@@]2(C)C5)C2C[C@@H]3OC4(CCC(C)CO4)C(C)[C@@H]3[C@]21C (some centres not stated)	> 100	> 100	> 100	> 100	96.4		> 100	> 100	> 100	> 100	> 100	50.3	> 100	> 100		70	> 100	> 100	> 100
O=C(O)C1Cc2ccccc2OC1=O (configuration not stated)	> 100	> 100	> 100	> 100	> 100		> 100	> 100	> 100		> 100	> 100	> 100	> 100	> 100		> 100	> 100	> 100
CN(C)C(=O)CO/N=C1/C(c2c(O)[nH]c3ccccc23)=Nc2ccccc21	> 100	> 100	> 100	> 100	> 100		> 100	> 100	> 100	> 100	> 100	58.6	> 100	> 100	> 100	> 100	> 100	> 100	> 100
